pIC50: −log10 of the molar value. Square brackets hold non-standard residues; d marks the D form. Peptide text beside a SMILES is read from it.
Key:
human erythrocytes = experiment: Hemolysis assay; type: cell-based; settings: for Hemolysis IC50: human erythrocytes, 4 h at 37 °C, value in brackets; for pIC50: red cells of human, 4 h
Description: Commercially available human blood (IWB1K2E10ML, Innovative Research Inc., Novi, MI, USA) was used to produce a 50% haematocrit solution by mixing at 1:1 with PBS 1× (P5493, 1 L, Sigma, St. Louis, MO, USA). Three consecutive PBS 1× washes plus centrifugation at 2600 rpm for 10 min steps were performed. Finally, a 2% erythrocyte solution was prepared in PBS 1× and chilled on ice until used. Polypropylene plates were filled with 50 µL PBS 1× per well for the samples and 50 µL 2% Triton X-100 (TX-100, 9002-93-1, 100 mL, Sigma, St. Louis, MO, USA) for the hemolysis controls. A solution at 4× final concentration of the assay of each peptide was prepared in PBS and 50 µL were added to the first column of each plate, followed by serial dilutions in the microplate. Then, 50 µL of the 2% erythrocyte solution was added to each plate. […] controls consisted in a 1:1 mix of PBS 1× and erythrocytes at 2%. Plates were incubated at 37 °C for 4 h and then centrifuged at 1500 rpm for 5 min. Eighty µL were extracted from the supernatant of each well carefully and transferred to a polystyrene flat bottom plate for reading and read at 450 nm in an Epoch microplate spectrophotometer (Epoch™, BioTek, Winooski, VT, USA).
The therapeutic index is a widely accepted parameter to represent the specificity of antimicrobial peptides for prokaryotic versus eukaryotic cells. It is calculated by the ratio of HC50 (hemolytic activity) and MIC (antimicrobial activity); thus, larger values of therapeutic index indicate greater specificity for prokaryotic cells.

[1] = tested on: P. aeruginosa ATCC 121110; experiment: Time-kill kinetic assay; type: cell-based, Pseudomonas aeruginosa
Description: (§1) Timepoints to withdraw aliquots of liquid cultures for each peptide, concentration, and strain were established at the following: 0, 2, 4, 8, and 24 h after inoculation. McFarland 0.5 solutions (~1.5 × 10^8 CFU/mL) were prepared from single-picked colonies grown O/N at 37 °C in Columbia Agar plates. Thirteen mL Falcon tubes were used to prepare solutions containing 5 mL of total volume by adding the following: 1 mL of peptide solution at 5 times chosen assay concentration to test, 3.75 mL AST, and 0.25 mL of a 1:10 McFarland dilution in AST. Positive controls contained 4.75 mL AST and 0.25 mL of strain inoculum diluted in AST; negative controls only contained 5 mL of AST. After adding the inoculum into each tube and vortexing, a 150 µL aliquot was taken from each tube at timepoint 0 h. All tubes were then placed in a 37 °C shaker-incubator at 180 rpm. Likewise, for timepoints 2, 4, 8, and 24 h, a 150 µL aliquot was withdrawn at each time for each tube. Each of these aliquots was serially diluted in 1:10 ratio in PBS 1× and 20 µL of the serial dilutions were spread on LB agar plates and incubated O/N at 37 °C. […] grown in LB agar plates were counted. Bacterial concentration (CFU/mL) for each strain, timepoint, and peptide concentration tested was calculated. Bactericidal effect was considered when there was a decrease of at least 3 in log10 (CFU/mL) for each peptide concentration at a given timepoint against each bacterial strain studied. A detection limit of 50 CFU/mL was established, corresponding to 1.70 log10 (CFU/mL), as 20 µL of each direct aliquot sample was spread in LB agar plates. Three replicates were run per peptide and strain.

P. aeruginosa R2 = experiment: Time-kill kinetic assay; type: cell-based, Pseudomonas aeruginosa
Description: as §1

[2] = tested on: P. aeruginosa R2 and 121110 strains; experiment: Transmission electron microscopy of treated bacteria; type: cell-based, Pseudomonas aeruginosa; settings: 4 h incubation at 4× MIC
Description: Bacterial strains P. aeruginosa R2 and 121110 under treatment with CAP-18, CAP-18_31, D-CAP-18, and D-CAP-18_31 were chosen for TEM visualization. A total of 5 mL AST broth cultures were prepared in 50 mL Falcon tubes and inoculated with single colonies grown in Columbia Agar incubated at 37 °C. Liquid cultures were then diluted 1:100 in fresh AST broth and incubated at 37 °C until OD 0.6 was reached. Cultures were then centrifuged 10 min at 3000× g at 4 °C, and supernatant was discarded and replaced by fresh AST. […] Results from TKC assays were used as a guidance to choose peptide concentrations and incubation times for TEM sample visualization. After incubation, tubes were centrifuged thrice for 15′ at 5000× g and 4 °C, substituting supernatant after each centrifugation by adding 10 mL PBS 1× to the pellet and resuspending. Supernatant was discarded after the final centrifugation step. Pellet was fixed by adding 1 mL of 2.5% glutaraldehyde + 2% paraformaldehyde in PBS 0.1 M at pH 7.4, and centrifuged 10′ at 5000× g and 4 °C. Supernatant was discarded 30 min after centrifugation and pellet was washed twice with 1 mL of fresh fixing solution. Samples were stored 4 °C O/N and processed by the Electronic Microscopy Unit, Medicine Faculty, University of Barcelona. University of Barcelona Microscopy Facilities.

Row | Compound | Hemolysis IC50 (human erythrocytes) | pIC50 (human erythrocytes) | incubation time to 3 log reduction / bactericidal effect ([1]; strain ATCC 121110, 4× MIC) | incubation time to 3 log reduction / bactericidal effect ([1]; strain ATCC 121110, 8× MIC) | effect after 24 h incubation (P. aeruginosa R2; strain R2, 4× MIC) | incubation time to bactericidal effect (decrease of at least 3 log10 CFU/mL) (P. aeruginosa R2; strain R2, 4× MIC) | effect after 24 h incubation (P. aeruginosa R2; strain R2, 8× MIC) | incubation time to bactericidal effect (decrease of at least 3 log10 CFU/mL) (P. aeruginosa R2; strain R2, 8× MIC) | effect on cell morphology (TEM) [2] | effect after 24 h incubation ([1]; strain ATCC 121110, 8× MIC) | incubation time to bactericidal effect (decrease of at least 3 log10 CFU/mL) (P. aeruginosa R2; strain R2, 2× MIC)
1 | CC[C@@H](C)[C@@H](NC(=O)[C@@H](CCCCN)NC(=O)[C@@H](CCCCN)NC(=O)[C@@H](CC(C)C)NC(=O)[C@@H](CCCCN)NC(=O)[C@@H](CCC(=O)O)NC(=O)[C@@H](CCCCN)NC(=O)[C@H](NC(=O)[C@@H](CCCCN)NC(=O)[C@@H](CC(N)=O)NC(=O)[C@@H](CCCNC(=N)N)NC(=O)[C@@H](Cc1ccccc1)NC(=O)[C@@H](CCCCN)NC(=O)[C@@H](CCCNC(=N)N)NC(=O)[C@@H](CC(C)C)NC(=O)[C@@H](CCCNC(=N)N)NC(=O)[C@@H](CCCCN)NC(=O)[C@@H](CCCNC(=N)N)NC(=O)[C@@H](CC(C)C)NC(=O)CN)[C@H](C)CC)C(=O)NCC(=O)N[C@H](CCC(N)=O)C(=O)N[C@H](CCCCN)C(=O)N[C@@H](C(=O)N[C@H](CCC(N)=O)C(=O)NCC(=O)N[C@H](CC(C)C)C(=O)N[C@H](CC(C)C)C(=O)N1CCC[C@@H]1C(=O)N[C@H](CCCCN)C(=O)N[C@H](CC(C)C)C(=O)O)[C@H](C)CC [D-CAP-18_31, Glrkrlrkfrnkikeklkkigqkiqgllpkl] (H-G[dL][dR][dK][dR][dL][dR][dK][dF][dR][dN][dK][dI][dK][dE][dK][dL][dK][dK][dI]G[dQ][dK][dI][dQ]G[dL][dL][dP][dK][dL]-OH) | 404.48 µg/mL | 3.96 | 4 h | 4 h | maintained after 24 h | 8 h | maintained after 24 h | 4 h | different stages of cellular damage | – | –
2 | H-GLRKRLRKFRNKIKEKLKKIGQKIQGLLPKL-OH [CAP-18_31] | 690.97 µg/mL | 3.73 | – | – | bacterial regrowth | 4 h | maintained the bactericidal effect after 24 h | 4 h | different stages of cellular damage | total eradication of the bacterial growth | 8 h

From PMC12382740, “In Vitro and In Vivo Characterization of Novel Cathelicidin-Based Peptides with Antimicrobial Activity Against Pseudomonas aeruginosa” (Antibiotics, 2025)
